Measurements taken from ChEMBL document CHEMBL1201862, “PubChem BioAssay data set” (2004).
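Where inhibition never reached the appropriate level, the endpoint shown equals the highest concentration tested. Otherwise, values were interpolated linearly from a five-concentration, 48-hour dose response in 96-well plates. Abbreviation: GI50, concentration required for 50% inhibition of growth.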 Calls of active or inactive are those of the source. Rule as the data show it: active = GI50 up to about 1.1 µM and inactive = higher.

Assays:
Assay in all cases: NCI-60 cell line screen, 48 h
SK-MEL-2 = system: SK-MEL-2
UO-31 = system: UO-31
MDA-N = system: MDA-N
OVCAR-8 = system: OVCAR-8
COLO 205 = system: COLO 205
HCT-15 = system: HCT-15
OVCAR-3 = system: OVCAR-3
OVCAR-5 = system: OVCAR-5
CCRF-CEM = system: CCRF-CEM
SW-620 = system: SW-620
786-0 = system: 786-0
MOLT-4 = system: MOLT-4
A549 = system: A549
MCF7 = system: MCF7
KM12 = system: KM12
HOP-62 = system: HOP-62
MDA-MB-231 = system: MDA-MB-231
SNB-75 = system: SNB-75
UACC-62 = system: UACC-62
CAKI-1 = system: CAKI-1
TK-10 = system: TK-10
HCT-116 = system: HCT-116
BT-549 = system: BT-549
Hs-578T = system: Hs-578T
SN12C = system: SN12C
SK-MEL-5 = system: SK-MEL-5
HL-60 = system: HL-60
MDA-MB-435 = system: MDA-MB-435
PC-3 = system: PC-3
UACC-257 = system: UACC-257
SK-OV-3 = system: SK-OV-3
IGROV-1 = system: IGROV-1
Malme-3M = system: Malme-3M
U-251 = system: U-251
HT-29 = system: HT-29
NCI/ADR-RES = system: NCI/ADR-RES
M14 = system: M14
OVCAR-4 = system: OVCAR-4
NCI-H522 = system: NCI-H522
SK-MEL-28 = system: SK-MEL-28
HCC 2998 = system: HCC 2998
HOP-92 = system: HOP-92
DU-145 = system: DU-145
K562 = system: K562
NCI-H23 = system: NCI-H23
NCI-H226 = system: NCI-H226
ACHN = system: ACHN
RXF 393 = system: RXF 393
T47D = system: T47D
EKVX = system: EKVX
SR = system: SR
A498 = system: A498
LOX IMVI = system: LOX IMVI
RPMI-8226 = system: RPMI-8226
SF-295 = system: SF-295
SF-268 = system: SF-268
SNB-19 = system: SNB-19
NCI-H460 = system: NCI-H460
SF-539 = system: SF-539

Measured: GI50

N=C(N)Nc1ccc(CC(N)C(=O)O)cc1 (configuration not stated)
> 12.5 µM: HCT-15
inactive: SK-MEL-2 > 12.5 µM | UO-31 > 12.5 µM | MDA-N > 12.5 µM | OVCAR-8 > 12.5 µM | COLO 205 > 12.5 µM | OVCAR-3 > 12.5 µM | OVCAR-5 > 12.5 µM | CCRF-CEM > 12.5 µM | SW-620 > 12.5 µM | 786-0 > 12.5 µM | MOLT-4 > 12.5 µM | A549 > 12.5 µM | MCF7 > 12.5 µM | KM12 > 12.5 µM | HOP-62 > 12.5 µM | MDA-MB-231 > 12.5 µM | SNB-75 > 12.5 µM | UACC-62 > 12.5 µM | CAKI-1 > 12.5 µM | TK-10 > 12.5 µM | HCT-116 > 12.5 µM | BT-549 > 12.5 µM | Hs-578T > 12.5 µM | SN12C > 12.5 µM | SK-MEL-5 > 12.5 µM | HL-60 > 12.5 µM | MDA-MB-435 > 12.5 µM | PC-3 > 12.5 µM | UACC-257 > 12.5 µM | SK-OV-3 > 12.5 µM | IGROV-1 > 12.5 µM | Malme-3M > 12.5 µM | U-251 > 12.5 µM | HT-29 > 12.5 µM | NCI/ADR-RES > 12.5 µM | M14 > 12.5 µM | OVCAR-4 > 12.5 µM | NCI-H522 > 12.5 µM | SK-MEL-28 > 12.5 µM | HCC 2998 > 12.5 µM | HOP-92 > 12.5 µM | DU-145 > 12.5 µM | K562 > 12.5 µM | NCI-H23 > 12.5 µM | NCI-H226 > 12.5 µM | ACHN > 12.5 µM | RXF 393 > 12.5 µM | T47D > 12.5 µM | EKVX > 12.5 µM | SR > 12.5 µM | A498 > 12.5 µM | LOX IMVI > 12.5 µM | RPMI-8226 > 12.5 µM | SF-295 > 12.5 µM | SF-268 > 12.5 µM

Clc1cc(OC23CC4CC(CC(C4)C2)C3)nc(Cl)n1
29.6 µM: HCT-15
inactive: SK-MEL-2 29.6 µM | UO-31 25.4 µM | MDA-N 50.6 µM | OVCAR-8 > 100 µM | SNB-19 > 100 µM | COLO 205 56.6 µM | OVCAR-3 39.2 µM | OVCAR-5 > 100 µM | CCRF-CEM 23.6 µM | SW-620 41.2 µM | 786-0 > 100 µM | MOLT-4 34 µM | A549 > 100 µM | MCF7 55.7 µM | KM12 > 100 µM | HOP-62 > 100 µM | MDA-MB-231 33.7 µM | SNB-75 64.6 µM | UACC-62 52.4 µM | CAKI-1 1.94 µM | TK-10 > 100 µM | HCT-116 46.3 µM | NCI-H460 39.6 µM | BT-549 > 100 µM | Hs-578T 22.8 µM | SN12C > 100 µM | SK-MEL-5 38.8 µM | HL-60 10 µM | MDA-MB-435 39.2 µM | PC-3 > 100 µM | UACC-257 39 µM | SK-OV-3 > 100 µM | SF-539 > 100 µM | IGROV-1 27.2 µM | Malme-3M > 100 µM | U-251 55.8 µM | HT-29 28.9 µM | NCI/ADR-RES > 100 µM | M14 29.9 µM | OVCAR-4 40.9 µM | NCI-H522 90.2 µM | SK-MEL-28 43.2 µM | HCC 2998 12.9 µM | HOP-92 1.7 µM | DU-145 55.7 µM | K562 21.9 µM | NCI-H23 58.7 µM | ACHN > 100 µM | RXF 393 27.8 µM | T47D > 100 µM | EKVX 37.5 µM | SR 19.8 µM | A498 > 100 µM | LOX IMVI 17 µM | RPMI-8226 37.9 µM | SF-295 > 100 µM | SF-268 69.8 µM

C=C(CO)C(=O)OC1CC(=C)C2CC(O)C(C)C2C2OC(=O)C(=C)C12 (configuration not stated)
inactive: SK-MEL-2 16.1 µM | UO-31 16.2 µM | MDA-N 19.3 µM | OVCAR-8 27.3 µM | SNB-19 22.9 µM | COLO 205 34.2 µM | OVCAR-3 16 µM | OVCAR-5 30.9 µM | CCRF-CEM 31.2 µM | SW-620 22.9 µM | 786-0 37.3 µM | MOLT-4 25.2 µM | A549 28.8 µM | MCF7 18.3 µM | KM12 18 µM | HOP-62 19.4 µM | MDA-MB-231 20 µM | SNB-75 19 µM | UACC-62 16.6 µM | CAKI-1 19.3 µM | TK-10 16.3 µM | HCT-116 33.2 µM | NCI-H460 35.8 µM | BT-549 14.9 µM | Hs-578T 18.4 µM | SN12C 18.2 µM | SK-MEL-5 24.3 µM | HL-60 25.8 µM | MDA-MB-435 21.2 µM | PC-3 31.6 µM | UACC-257 15.6 µM | SK-OV-3 30.4 µM | SF-539 18 µM | IGROV-1 18.9 µM | Malme-3M 21.3 µM | U-251 26.7 µM | HT-29 24.7 µM | NCI/ADR-RES 44.7 µM | M14 17.3 µM | OVCAR-4 61.1 µM | NCI-H522 26.3 µM | SK-MEL-28 24.3 µM | HCC 2998 21.7 µM | HOP-92 32.4 µM | DU-145 42.5 µM | K562 31.3 µM | NCI-H23 > 100 µM | ACHN 18.4 µM | RXF 393 20 µM | T47D 49.4 µM | EKVX 40.9 µM | SR 19.3 µM | A498 39.6 µM | LOX IMVI 29.9 µM | RPMI-8226 24.5 µM | SF-295 19.4 µM | SF-268 20.7 µM
19.1 µM: HCT-15

Cc1ccc(S(=O)(=O)NNC(=O)c2cc(C)c(C)cc2N)cc1
inactive: UO-31 > 100 µM | MDA-N > 100 µM | OVCAR-8 60.4 µM | SNB-19 > 100 µM | COLO 205 > 100 µM | OVCAR-3 94.2 µM | OVCAR-5 > 100 µM | CCRF-CEM > 100 µM | SW-620 > 100 µM | 786-0 > 100 µM | MOLT-4 66.2 µM | MCF7 > 100 µM | KM12 > 100 µM | HOP-62 > 100 µM | MDA-MB-231 > 100 µM | SNB-75 > 100 µM | UACC-62 > 100 µM | CAKI-1 > 100 µM | HCT-116 > 100 µM | NCI-H460 > 100 µM | BT-549 > 100 µM | Hs-578T 84.1 µM | SN12C > 100 µM | SK-MEL-5 > 100 µM | HL-60 > 100 µM | MDA-MB-435 > 100 µM | PC-3 > 100 µM | UACC-257 > 100 µM | SK-OV-3 > 100 µM | SF-539 > 100 µM | IGROV-1 > 100 µM | Malme-3M > 100 µM | U-251 > 100 µM | HT-29 > 100 µM | NCI/ADR-RES > 100 µM | M14 > 10 µM | OVCAR-4 > 100 µM | NCI-H522 47 µM | SK-MEL-28 > 100 µM | HCC 2998 > 100 µM | HOP-92 > 100 µM | DU-145 > 100 µM | K562 > 100 µM | NCI-H23 > 100 µM | NCI-H226 > 100 µM | ACHN > 100 µM | RXF 393 > 100 µM | T47D 96.6 µM | EKVX > 100 µM | SR > 100 µM | A498 > 100 µM | LOX IMVI > 100 µM | RPMI-8226 > 100 µM | SF-295 > 100 µM
> 100 µM: HCT-15
